Results on eleven compounds are retold here after ChEMBL document CHEMBL3784990, “Synthesis and in vitro anticancer evaluation of some 4,6-diamino-1,3,5-triazine-2-carbohydrazides as Rad6 ubiquitin conjugating enzyme inhibitors” (Bioorg Med Chem Lett, 2016).

Calls of active or inactive are those of the source. The rule behind the calls is not given here.

One experiment relates to A549. In words: Cytotoxicity against human A549 cells after 72 hrs by MTS assay. It is filed as functional, cell-based. The conditions noted are these: A549, 72 h.
Experiment [1] can be described thus: Cytotoxicity against human OV90 cells after 72 hrs by MTS assay. The format is functional, cell-based. The conditions noted are these: OV-90, 72 h.
Experiment [2] concerns the target Ubiquitin-conjugating enzyme E2 B (Homo sapiens) (UniProt P63146). In words: Inhibition of human recombinant Rad6B assessed as suppression of Rad6B conjugation to ubiquitin at 25 nM pre-incubated for 1 hr by Western blot analysis.
Experiment [3] is described as follows: Cytotoxicity against human H1299 cells after 72 hrs by MTS assay. The format is functional, cell-based. The conditions noted are these: NCI-H1299, 72 h.
The next experiment deals with MCF7. In words: Cytotoxicity against human MCF7 cells after 72 hrs by MTS assay. It is filed as functional, cell-based. The following applies: MCF7, 72 h.
Another experiment has as its system HT-29. In words: Cytotoxicity against human HT-29 cells after 72 hrs by MTS assay. It is filed as functional, cell-based. The conditions noted are these: HT-29, 72 h.
A further experiment has as its system A2780. In words: Cytotoxicity against human A2780 cells after 72 hrs by MTS assay. It is filed as functional, cell-based. The conditions noted are these: A2780, 72 h.
In a further experiment the test system is MDA-MB-231. In words: Cytotoxicity against human MDA-MB-231 cells after 72 hrs by MTS assay. The format is functional, cell-based. The conditions noted are these: MDA-MB-231, 72 h.
In experiment [4] the target is Ubiquitin-conjugating enzyme E2 B (Homo sapiens) (UniProt P63146). In words: Inhibition of human recombinant Rad6B assessed as suppression of H2A substrate ubiquitination at 25 nM pre-incubated for 1 hr before H2A addition by Western blot analysis.
Chain of Ubiquitin-conjugating enzyme E2 B (Homo sapiens) (P63146 whole entry): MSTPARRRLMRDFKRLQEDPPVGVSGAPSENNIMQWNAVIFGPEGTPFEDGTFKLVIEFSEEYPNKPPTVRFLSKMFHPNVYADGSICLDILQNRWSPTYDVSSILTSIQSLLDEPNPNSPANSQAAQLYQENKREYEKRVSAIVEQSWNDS

With `NNC(=O)c1nc(N)nc(Nc2ccccc2)n1`, the IC50 in the experiment with A549 came to 7.8 µM; in experiment [1], 75 µM; in experiment [3], 65 µM; in the experiment on MCF7, 5.9 µM; with HT-29, 3.3 µM; in the experiment with A2780, 7.3 µM. This compound also registered an IC50 in the experiment with MDA-MB-231 of 2.6 µM. In experiment [2], the inhibition entry is “Active”.

Consider `COc1ccc(Nc2nc(N)nc(C(=O)NN)n2)cc1`, for which the IC50 in the experiment on A549 is 5.2 µM; in experiment [1] it was 80 µM; in experiment [3] it was 65 µM; with MCF7, 6.2 µM; in the experiment on HT-29, 5.4 µM; with A2780, 14.7 µM. This compound also displayed an IC50 with MDA-MB-231 of 7.6 µM. Besides, the inhibition entry in [2] is “Active”.

Consider `O=C(NNc1ccccc1)c1nc(Nc2ccc(Cl)cc2)nc(Nc2ccc(Cl)cc2)n1`, for which the half-maximal inhibitory concentration (IC50) with A549 is 7.8 µM; in [1] it was 60 µM; in [3] it was 15 µM; in the experiment on MCF7 it was 4.2 µM; with HT-29, 4.1 µM; with A2780 it was 8.2 µM. In the experiment with MDA-MB-231, this compound had an IC50 of 3.5 µM. Moreover, the inhibition result in experiment [2] and in experiment [4] was “Active” throughout.

For the compound `COc1ccccc1Nc1nc(N)nc(C(=O)NN)n1`, the 50% inhibitory concentration (IC50) in the experiment with A549 is 7.5 µM; in experiment [1], 90 µM; in experiment [3], 50 µM; in the experiment with MCF7, 11.8 µM; in the experiment on HT-29, 8.6 µM; in the experiment with A2780 it was 5.6 µM. In the experiment on MDA-MB-231, this compound displayed an IC50 of 15.7 µM. Besides, in experiment [2], the inhibition entry is “Active”.

As for `Nc1nc(COC(=O)c2ccc([N+](=O)[O-])cc2)nc(Nc2ccccc2)n1`, the IC50 with A549 was 7.2 µM; in experiment [1], 60 µM; in [3], 45 µM; with MCF7 it was 5 µM; in the experiment with HT-29 it was 8.3 µM; with A2780, 7.8 µM. For the same compound, the IC50 with MDA-MB-231 was found to be 4.6 µM. The inhibition entry in [2] and in experiment [4] was “Active” in each case.

Turning to `NNC(=O)c1nc(N)nc(Nc2ccc(Cl)cc2)n1`, the half-maximal inhibitory concentration (IC50) with A549 was determined as 7.5 µM; in experiment [1], 85 µM; in [3], 30 µM; in the experiment on MCF7, 8.8 µM; with HT-29, 4.6 µM; in the experiment on A2780, 36.6 µM. Further, 24.6 µM corresponded to half-maximal inhibition with MDA-MB-231 (IC50). Besides, the inhibition entry in experiment [2] is “Active”.

Regarding `COc1ccccc1Nc1nc(Nc2ccccc2OC)nc(C(=O)NNc2ccccc2)n1`, the IC50 in the experiment with A549 was found to be 6.9 µM; in experiment [1], 10 µM; in experiment [3], 26 µM; with MCF7, 7.2 µM; in the experiment on HT-29 it was 8.9 µM; in the experiment with A2780 it was 5 µM. In addition, the IC50 in the experiment on MDA-MB-231 amounted to 3.9 µM. In experiment [2], the inhibition entry was “Active”.

Take `COc1ccc(Nc2nc(Nc3ccc(OC)cc3)nc(C(=O)NNc3ccccc3)n2)cc1`: the IC50 in the experiment on A549 is 10.8 µM; in [1], 12 µM; in [3], 5 µM; in the experiment with MCF7, 7.2 µM; with HT-29 it was 5.8 µM; in the experiment on A2780 it was 6.3 µM. In the experiment with MDA-MB-231, this compound showed an IC50 of 4.2 µM. In addition, the inhibition entry in [2] and in experiment [4] was “Active” in each case.

Turning to `O=C(NNc1ccccc1)c1nc(Nc2ccccc2)nc(Nc2ccccc2)n1`, the IC50 with A549 worked out at 14.6 µM; in experiment [1], 8 µM; in [3], 11 µM; in the experiment with MCF7 it was 6 µM; in the experiment with HT-29, 9.5 µM; with A2780 it was 7.1 µM. The same compound returned an IC50 in the experiment on MDA-MB-231 of 2.5 µM. Besides, the inhibition result in experiment [2] and in experiment [4] was “Active” each time.

`Cc1ccc(Nc2nc(Nc3ccc(C)cc3)nc(C(=O)NNc3ccccc3)n2)cc1`: the IC50 with A549 is 11.6 µM; in experiment [1], 5 µM; in [3] it was 22 µM; in the experiment on MCF7, 4.2 µM; in the experiment on HT-29, 5.2 µM; with A2780 it was 3.6 µM. This compound also showed an IC50 with MDA-MB-231 of 3.5 µM. In addition, the inhibition entry in experiment [2] and in experiment [4] was “Active” each time.

As for `Cc1ccc(Nc2nc(N)nc(C(=O)NN)n2)cc1`, the 50% inhibitory concentration (IC50) in the experiment with A549 is 9.3 µM; in experiment [1] it was 60 µM; in experiment [3], 40 µM; with MCF7, 16 µM; in the experiment on HT-29 it was 4.5 µM; with A2780 it was 5.5 µM. In addition, the half-inhibitory concentration (IC50) in the experiment with MDA-MB-231 came to 12.7 µM. Further, the inhibition result in [2] is “Active”.
